Laboratory results taken from patent US11780802B2, “Organic sulfonic acid salts of amino acid esters and process for their preparation” (priority 2017, dated 2023).

Experiment: Stability in alkaline solution (residual ester bonds by 1H-NMR after storage)
Type: physicochemical
Details: 7 d, 50 wt % in water
Description: To determine the stability under alkaline conditions, 50 wt % of the organic sulfonic acid salt of an amino acid ester is dissolved in water, pH is adjusted with sodium hydroxide to pH 8.5. The aqueous solution or emulsion is stored for 7 days at room temperature and 40° C. Before storage the integral of CH2-O—CO— (^1H-NMR in MeOD, ˜4.2 ppm) is measured. The stability of organic sulfonic acid salt of an amino acid ester is indicated by measuring the integral of CH2-O—CO— (^1H-NMR in MeOD) after storage.

Row | SMILES | Residual amount of ester bonds after storage, calculated from 1H-NMR in MeOD (pH 8.5, 40° C.) [%] | Residual amount of ester bonds after storage, calculated from 1H-NMR in MeOD (pH 8.5, RT) [%]
1 | CCCCC(CC)COC(=O)C(C)N.CS(=O)(=O)O (stereo not drawn) [compound 4] | 46 | 72
2 | CCCCC(CC)COC(=O)CN.CS(=O)(=O)O (stereo not drawn) [compound 3] | 20 | 37
3 | CCCCC(CC)COC(=O)CCCCCN.CCCCCCCCCCCCc1ccc(S(=O)(=O)O)cc1 [Example 11, 6-amino-hexane acid-2-ethylhexylester 4-dodecylbenzene sulfonic acid salt] | 100 | 100
